{"source": "patent US20040127468A1", "about": "“Methods and compositions for treating apoptosis associated disorders” (priority 2001, published 2004)", "key": {"[1]": {"test_system": "cerebellar granule neurons", "assay": "Survival of cerebellar granule neurons after glutamate (counting intact nuclei)", "format": "cell-based, rat", "conditions": "apoptosis initiating insult: Glutamate", "experimental": "(§1) Cerebellar granule neurons were obtained from postnatal day 7 rat pups by enzymatic digestion and maintained in serum supplemented Eagle's Basal medium. Viable cells were plated at a density of 500,000 cells/ml onto poly-L-lysine coated tissue culture plastic or glass coverslips. Cytosine arabinoside (Ara-C) (10 μM) was added at 24 hours to halt glial proliferation. To induce apoptosis in the cerebellar granule neurons, 10^−4 to 10^−6 M glutamate was added on day 7 to the culture.\nBoth cell survival and the percentages of cells with evidence of apoptotic nuclear degradation were assessed for all treatments. […] Intact nuclei were counted using a hemocytometer (see see (Tatton et al., 1994, J. Neurochemistry, 63:1572-1575; Wadia et al., J. Neuroscience, 1998, 18: 932-947; Carlile et al., 2000, Molecular Pharmacology, 57:2-12) for details of treatment and counting methods).\n(§2) The capacity of phosphatidic acid to increase survival, decrease apoptosis and maintain mitochondrial membrane potential was determined by counting intact nuclei as an indicator of cell survival, determining the percentages of cells with nuclear chromatin (DNA) condensation by staining cells with YOYO-1, a nucleic acid binding dye, and measuring mitochondrial potentiometric dye fluorescence by imaging them with florescence microscopy."}, "[2]": {"test_system": "NGF differentiated PC12 cells", "assay": "Survival of NGF differentiated PC12 cells after apoptosis initiating insult (counting intact nuclei)", "format": "cell-based", "experimental": "PC12 cells (ATCC, Manassas, Md.) were propagated in minimum essential medium (MEM) containing 10% horse serum, 5% fetal bovine serum, 2 mM L-glutamine, 50 units/ml penicillin, and 50 μg/ml streptomycin (MEM with serum, MIS), all purchased from Life Technologies (Rockville, Md.). The cells were grown on 24 well plates (8×10^4 cells/well) for counting of intact nuclei as an estimate of survival, poly-L-lysine treated coverslips (1×10^4 cells/coverslip) for imaging with epiflorescence microscopy or laser confocal scanning microscopy (LCSM) or 100 mm dishes (1×10^6 cells/plate) for protein chemistry. The cells were differentiated for 6 days in M/S supplemented with 100 ng/ml 7S NGF (Upstate Biotech., Lake Placid, N.Y.). MEM with serum and NGF is abbreviated as M/S+N (see (Tatton et al., 1994, J. Neurochemistry, 63:1572-1575; Wadia et al., J. Neuroscience, 1998, 18: 932-947; Carlile et al., 2000, Molecular Pharmacology, 57:2-12) for further details of culture and treatment). Serum and NGF Withdrawal: Following incubation for 6 days in MEM with serum and NGF, cells underwent three successive washes in Hanks' Balanced Salt Solution (HBSS; Life Technologies, Rockville, Md.) to remove NGF and serum-borne trophic agents and then were replaced into MEM with serum and NGF for controls or into MEM without serum and NGF to induce apoptosis by serum and NGF withdrawal. C2-Ceramide, Rotenone, Peroxide, and Atractyloside Exposure: After 6 days of exposure to serum and NGF, cultures maintained in MEM with serum and NGF were treated for 24 hours with either vehicle (HBSS) as a control, or concentrations of C2-ceramide in HBSS varying from 2 to 50 μM, concentrations of rotenone in BSS varying from 2 to 50 nM, concentrations of H2O2 in HBSS varying from 0.01 to 0.25 mM H2O2 or concentrations of atractyloside in HBSS varying from 2 to 20 mM. Both cell survival and the percentages of cells with evidence of apoptotic nuclear degradation were assessed for all treatments. To estimate survival, the cells were seeded at a density of 8×10^4 cells/well in 24 well plates. Cells were harvested 24 hours after treatment and lysed. Intact nuclei were counted using a hemocytometer (see see (Tatton et al., 1994, J. Neurochemistry, 63:1572-1575; Wadia et al., J. Neuroscience, 1998, 18: 932-947; Carlile et al., 2000, Molecular Pharmacology, 57:2-12) for details of treatment and counting methods). The capacity of phosphatidic acid to increase survival, decrease apoptosis and maintain mitochondrial membrane potential was determined by counting intact nuclei as an indicator of cell survival, determining the percentages of cells with nuclear chromatin (DNA) condensation by staining cells with YOYO-1, a nucleic acid binding dye, and measuring mitochondrial potentiometric dye fluorescence by imaging them with florescence microscopy."}, "[3]": {"test_system": "NGF differentiated PC12 cells", "assay": "Mitochondrial membrane potential by potentiometric dye fluorescence (TMRM, CMTMR) in NGF differentiated PC12 cells", "format": "cell-based", "experimental": "Live cell ΔψM measurement: Cells on polylysine coated coverglass were incubated with 100 nM tetramethylrodaminemethylester (TMRM, Molecular probes, Eugene, Oreg.) or 10 μg/ml JC-1 (Molecular Probes, Eugene, Oreg.) to provide an estimate of ΔψM. The coverslips were transferred to a gas and temperature controlled circulating live cell chamber (Medical Systems Corp., Greenvale, N.Y.). A thermocoupler immersed in the medium maintained the media temperature at 37±0.1° C. TMRM, JC-1 and chloromethyltetramethylrosamine (CMTMR, Molecular probes, Eugene, Oreg.) and JC-1 stained cells were imaged 10 minutes following dye addition and images were collected every 3 minutes for approximately 20 minutes.\nFixed cell ΔψM Measurement. After treatment of NGF differentiated PC12 cells on poly-L-lysine coated 12 mm coverslips, the fixable potentiometric dye, CMTMR, was added at 137 nM for 15 minutes at 37° C. and simultaneous immunocytochemistry was performed. The cells were then rinsed once with warm Dulbecco's PBS prior to overnight fixation with ice cold 4% paraformaldehyde in PB and mounted onto slides with the aqueous mounting medium, Aquamount (Gallard-Schlesinger Ind., Garden City, N.Y.).\nFlorescence Microscopy. Images were obtained using a Leica TCS4D confocal microscope coupled to an argon-krypton laser or a standard epi-floresence microscope. The images were scanned or imaged using an oil immersion 100×1.4 N.A. objective to minimize focal depth. CMTMR and TMRM treated cells were imaged using 568 nm excitation and detected with 600/30 nm band pass filter. The JC-1 incubated cells were imaged using 488 nm excitation and detected using 530/30 nm band pass and 590 nm long pass filters observed by separate detectors. Image resolution was 512×512×8 bits per pixel. […] To measure the intensity of mitochondrial potentiometric dye fluorescence, pixel intensity measurements from 20-40 mitochondria from each of 50-70 cells per treatment, per experiment were obtained by placing a 3×3 pixel box at 2 points in each mitochondrion. The fluorescence intensity values were automatically exported to an Excel spreadsheet for subsequent analysis in MicroCal Origin (Northampton, Mass.). […]\nas §2"}, "[4]": {"test_system": "NGF differentiated PC12 cells", "assay": "Nuclei with chromatin condensation (YOYO-1 staining) in NGF differentiated PC12 cells", "format": "cell-based", "experimental": "PC12 cells (ATCC, Manassas, Md.) were propagated in minimum essential medium (MEM) containing 10% horse serum, 5% fetal bovine serum, 2 mM L-glutamine, 50 units/ml penicillin, and 50 μg/ml streptomycin (MEM with serum, MIS), all purchased from Life Technologies (Rockville, Md.). The cells were grown on 24 well plates (8×10^4 cells/well) for counting of intact nuclei as an estimate of survival, poly-L-lysine treated coverslips (1×10^4 cells/coverslip) for imaging with epiflorescence microscopy or laser confocal scanning microscopy (LCSM) or 100 mm dishes (1×10^6 cells/plate) for protein chemistry. The cells were differentiated for 6 days in M/S supplemented with 100 ng/ml 7S NGF (Upstate Biotech., Lake Placid, N.Y.). MEM with serum and NGF is abbreviated as M/S+N (see (Tatton et al., 1994, J. Neurochemistry, 63:1572-1575; Wadia et al., J. Neuroscience, 1998, 18: 932-947; Carlile et al., 2000, Molecular Pharmacology, 57:2-12) for further details of culture and treatment). […]\n(§3) Percentages of cells with apoptotic nuclei were determined for cells grown on poly-L-lysine treated coverslips (density 1×10^4/coverslip). […] The total number of YOYO-1 stained nuclei with chromatin condensation were counted on twenty-five 40× fields for each coverslip, each field chosen by pairs of randomly-generated x-y coordinates. The proportion of nuclei with chromatin condensation were expressed as a percentage of the total number of cells in each field. […]\nas §2"}, "[5]": {"test_system": "cerebellar granule neurons", "assay": "Nuclei with chromatin condensation (YOYO-1 staining) in cerebellar granule neurons after glutamate", "format": "cell-based, rat", "conditions": "apoptosis initiating insult: Glutamate", "experimental": "as §1, §3, §2"}, "[6]": {"conditions": "apoptosis initiating insult: Serum and NGF Withdrawal"}}, "data": [{"substance": "phosphatidic acid [PA]", "values": [{"measurement": "PA Increases Survival", "setting": "[1]", "result": "Yes"}, {"measurement": "PA Increases Survival", "setting": "[1]; listed as Phosphatidic acid", "result": "increase cell survival"}, {"measurement": "increase of cell survival by varying concentrations of phosphatidic acid", "setting": "[2]; after exposure to 0.1 mM H2O2 which kills about 60% of the cells (FIG. 3C)", "result": "does not substantially increase"}, {"measurement": "PA reduced apoptosis", "setting": "[2]; apoptosis initiated by peroxide or atractyloside, 2 to 30 μM PA", "result": "not"}, {"measurement": "PA Increases Survival", "setting": "[2]; apoptosis initiating insult: Atractyloside, 24 hours", "result": "No"}, {"measurement": "PA Increases Survival", "setting": "[2]; apoptosis initiating insult: Ceramide (C2-ceramide), 24 hours", "result": "Yes - FIG. 2A"}, {"measurement": "PA Increases Survival", "setting": "[2]; apoptosis initiating insult: Ceramide (C2-ceramide), 24 hours, listed as Phosphatidic acid", "result": "increase cell survival"}, {"measurement": "PA Increases Survival", "setting": "[2]; apoptosis initiating insult: Peroxide (H2O2), 24 hours, listed as phosphatidic acid", "result": "does not alter survival"}, {"measurement": "PA Increases Survival", "setting": "[2]; apoptosis initiating insult: Rotenone, 24 hours, listed as Phosphatidic acid", "result": "increase cell survival"}, {"measurement": "PA Increases Survival", "setting": "[2]; [6]", "result": "Yes - FIG. 3B"}, {"measurement": "PA Increases Survival", "setting": "[2]; apoptosis initiating insult: Serum and NGF Withdrawal, listed as Phosphatidic acid", "result": "increase cell survival"}, {"measurement": "PA Reduces Decreases In Mitochondrial Membrane Potential", "setting": "[3]; apoptosis initiating insult: Ceramide, dyes TMRM and CMTMR, listed as phosphatidic acid", "result": "reduces"}, {"measurement": "PA Reduces Decreases In Mitochondrial Membrane Potential", "setting": "[3]; apoptosis initiating insult: Rotenone, dyes TMRM and CMTMR", "result": "Yes - FIG. 4C"}, {"measurement": "PA Reduces Decreases In Mitochondrial Membrane Potential", "setting": "[3]; apoptosis initiating insult: Rotenone, dyes TMRM and CMTMR, listed as phosphatidic acid", "result": "reduces"}, {"measurement": "PA Reduces Decreases In Mitochondrial Membrane Potential", "setting": "[3]; [6]", "result": "Yes"}, {"measurement": "PA Decreases Nuclei With Chromatin Condensation", "setting": "[4]; apoptosis initiating insult: Ceramide", "result": "Yes"}, {"measurement": "PA Decreases Nuclei With Chromatin Condensation", "setting": "[4]; apoptosis initiating insult: Rotenone", "result": "Yes"}, {"measurement": "PA Decreases Nuclei With Chromatin Condensation", "setting": "[4]; [6]", "result": "Yes"}, {"measurement": "PA Decreases Nuclei With Chromatin Condensation", "setting": "[5]", "result": "Yes"}]}]}
